Data set [1] can be described thus: Solubility measurement in n-butylbenzene. Format: physicochemical. The following applies: room temperature, weight percent based on total solution weight. How it is done: The solubility of the small molecule semiconductor was measured in n-butylbenzene at room temperature. The weight percent is based on the total solution weight. Typically, the solubility is lower in n-butylbenzene compared to halogenated solvents such as chloroform, chlorobenzene, and dichlorobenzene.

The nature of data set [2]: Differential Scanning Calorimetry, thermal stability. Format: physicochemical. The following applies: DSC, heated from 30 to 360° C. at 10° C. per minute. How it is done: Differential Scanning Calorimetry Measurement
Differential Scanning Calorimeter (DSC, TA Instruments 2920 from TA Instruments of New Castle, Del.) was used to measure phase transition and melting point of the small molecule semiconductors. Examples 1 to 8 were heated from 30 to 350° C. at a heating rate of 10° C. per minute. […] No decomposition was observed up to the 350° C. of the testing range. […] Example 9 was heated from 30 to 360° C. at a heating rate of 10° C. per minute. […] Example 9 started to decompose around 357° C.
In general terms: In DSC, transitions show as peaks or steps in heat flow.

Data on nine compounds can be found in patent publication US8178873B2, “Solution processable organic semiconductors” (3M Innovative Properties Company, priority 2007, dated 2012).

The structures appear in SMILES notation.

As a reminder, the melting point is the temperature of the solid-liquid transition.

`Cc1ccc(-c2ccc3c(C#C[Si](C(C)C)(C(C)C)C(C)C)c4cc(-c5ccc(C)s5)ccc4c(C#C[Si](C(C)C)(C(C)C)C(C)C)c3c2)s1` [Example 2, 2,6-Bis(5-methyl-thiophene-2-yl)-9,10-bis-[(triisopropylsilyl)ethynyl]anthracene] showed a melting point of 333 °C. Besides, in data set [1], the “Solubility in butyl benzene” value is 0.05 wt %.

The compound `CCc1ccc(-c2ccc3c(C#C[Si](C(C)C)(C(C)C)C(C)C)c4cc(-c5ccc(CC)s5)ccc4c(C#C[Si](C(C)C)(C(C)C)C(C)C)c3c2)s1` [Example 4, 2,6-Bis(5-ethyl-thiophene-2-yl)-9,10-bis-[(triisopropylsilyl)ethynyl]anthracene] displayed a melting point of 274.6 °C. For the same compound, the “Solubility in butyl benzene” value in data set [1] is 1.4 wt %.

As for `CC(C)[Si](C#Cc1c2ccc(-c3cccs3)cc2c(C#C[Si](C(C)C)(C(C)C)C(C)C)c2ccc(-c3cccs3)cc12)(C(C)C)C(C)C` [Example 1, 2,6-Bis(thiophene-2-yl)-9,10-bis-[(triisopropylsilyl)ethynyl]anthracene], the melting point came out at 293 °C. Besides, the “Solubility in butyl benzene” value in data set [1] was 0.05 wt %.

`CCCCCCc1ccc(-c2ccc3c(C#C[Si](C(C)C)(C(C)C)C(C)C)c4cc(-c5ccc(CCCCCC)s5)ccc4c(C#C[Si](C(C)C)(C(C)C)C(C)C)c3c2)s1` [Example 6, 2,6-Bis(5-hexyl-thiophene-2-yl)-9,10-bis-[(triisopropylsilyl)ethynyl]anthracene] registered a melting point of 190.3 °C. In addition, the “Solubility in butyl benzene” value in data set [1] turned out to be 2.5 wt %.

`CCCc1ccc(-c2ccc3c(C#C[Si](C(C)C)(C(C)C)C(C)C)c4cc(-c5ccc(CCC)s5)ccc4c(C#C[Si](C(C)C)(C(C)C)C(C)C)c3c2)s1` [Example 5, 2,6-Bis(5-propyl-thiophene-2-yl)-9,10-bis-[(triisopropylsilyl)ethynyl]anthracene] returned a melting point of 208.3 °C. In addition, the “Solubility in butyl benzene” value in data set [1] was 1.4 wt %.

`CC(C)[Si](C#Cc1c2ccc(-c3ccc(C=O)s3)cc2c(C#C[Si](C(C)C)(C(C)C)C(C)C)c2ccc(-c3ccc(C=O)s3)cc12)(C(C)C)C(C)C` [Example 9, 2,6-Bis(5-formyl-thiophene-2-yl)-9,10-bis-[(triisopropylsilyl)ethynyl]anthracene]: the melting point was > 350 °C. Moreover, the “Solubility in butyl benzene” value in data set [1] stood at 0.04 wt %. The “Temperature at which decomposition started” value in data set [2] is “around 357 °C”.

`CC(C)[Si](C#Cc1c2ccc(-c3ccc(-c4cccs4)s3)cc2c(C#C[Si](C(C)C)(C(C)C)C(C)C)c2ccc(-c3ccc(-c4cccs4)s3)cc12)(C(C)C)C(C)C` [Example 8, 2,6-Bis(2,2′-bithiophene-5-yl)-9,10-bis-[(triisopropylsilyl)ethynyl]anthracene] showed a melting point of 299 °C. Moreover, the “Solubility in butyl benzene” value in data set [1] came out at 0.2 wt %.

`CCCCCCc1ccsc1-c1ccc2c(C#C[Si](C(C)C)(C(C)C)C(C)C)c3cc(-c4sccc4CCCCCC)ccc3c(C#C[Si](C(C)C)(C(C)C)C(C)C)c2c1` [Example 7, 2,6-Bis(3-hexyl-thiophene-2-yl)-9,10-bis-[(triisopropylsilyl)ethynyl]anthracene] displayed a melting point of 141.8 °C. Besides, the “Solubility in butyl benzene” value in data set [1] is 4.2 wt %.

In turn, `Cc1ccsc1-c1ccc2c(C#C[Si](C(C)C)(C(C)C)C(C)C)c3cc(-c4sccc4C)ccc3c(C#C[Si](C(C)C)(C(C)C)C(C)C)c2c1` [Example 3, 2,6-Bis(3-methyl-thiophene-2-yl)-9,10-bis-[(triisopropylsilyl)ethynyl]anthracene] had a melting point of 237.6 °C. For the same compound, in data set [1], the “Solubility in butyl benzene” value was 2.3 wt %.
